Measured values: US20240174618A1, “SUBSTITUTED (2-HETEROARYLOXYPHENYL)SULFONATES, SALTS THEREOF AND THEIR USE AS HERBICIDAL AGENTS” (Bayer Aktiengesellschaft, priority 2021, published 2024)

Assays:
Format in all cases: in vivo
[1] = test system: Digitaria sanguinalis (DIGSA); test: A. Herbicidal pre-emergence efficacy, DIGSA; details: scored visually after about 3 weeks vs untreated controls
Method in brief: (§1)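 Applied before emergence onto covering soil at rates of 1280 g/ha or less, using 600 L/ha spray water with 0.5% additive. Scoring: visual % efficacy after ~3 weeks, greenhouse.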

[2] = test system: Abutilon theophrasti (ABUTH); test: A. Herbicidal pre-emergence efficacy, ABUTH; details: scored visually after about 3 weeks vs untreated controls
Method in brief: as §1

[3] = test system: Kochia scoparia (KCHSC); test: B. Herbicidal post-emergence efficacy, KCHSC; details: for Post-emergence efficacy against KCHSC in %: rated visually after about 3 weeks; for Post-emergence efficacy against KCHSC: 1280 g/ha
Method in brief: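 Weeds grown in sandy loam in greenhouse pots, sprayed at one-leaf stage (2–3 weeks after sowing) with WP or EC formulations as aqueous suspension/emulsion plus 0.5% additive at 600 L/ha water, rates up to 1280 g/ha. Visual efficacy rated about 3 weeks later versus untreated controls (0% = like control, 100% = dead).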

[4] = test system: Setaria viridis (SETVI); test: C. Herbicidal pre-emergence efficacy, SETVI; details: scored after about 3 weeks
Method in brief: (§2)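 Pre-emergence test: formulated compounds sprayed as aqueous suspension or emulsion with 0.5% additive at 600 l/ha onto soil covering sown seeds, at rates corresponding to 320 g/ha or less. After about 3 weeks in greenhouse, efficacy scored visually as percent versus untreated controls (100% = plants dead).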

[5] = test system: Amaranthus retroflexus (AMARE); test: E. Herbicidal post-emergence efficacy, AMARE
Method in brief: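 Visual scoring against untreated plants was done roughly 3 weeks after spraying (0% = no effect, 100% = plants dead). Spray application at 320 g/ha or lower, 600 l/ha water with 0.5% additive, was made onto green parts of one-leaf-stage greenhouse plants grown 2-3 weeks in sandy loam.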

[6] = test system: Setaria viridis (SETVI); test: E. Herbicidal post-emergence efficacy, SETVI
Experimental: Seeds of monocotyledonous and dicotyledonous weeds and crop plants were placed in sandy loam in plastic or organic planting pots, covered with soil and cultivated in a greenhouse under controlled growth conditions. 2 to 3 weeks after sowing, the test plants were treated at the one-leaf stage. The compounds of the invention, formulated in the form of wettable powders (WP) or as emulsion concentrates (EC), were then sprayed onto the green parts of the plants as aqueous suspension or emulsion with addition of 0.5% additive at a water application rate of 600 l/ha (converted). After the test plants had been kept in the greenhouse under optimum growth conditions for about 3 weeks, the activity of the preparations was rated visually in comparison to untreated controls.
For example, • 100% efficacy=plants have died, • 0% action=like untreated control plants.
Tables E1a to E12b below show the effects of selected compounds of the general formula (I) according to table 1 on various harmful plants at an application rate corresponding to 320 g/ha or less, which were obtained by the experimental procedure mentioned above.

[7] = test system: Alopecurus myosuroides (ALOMY); test: C. Herbicidal pre-emergence efficacy, ALOMY; details: scored after about 3 weeks
Text: Seeds of monocotyledonous and dicotyledonous weed plants and crop plants were placed in plastic or organic planting pots and covered with soil. The compounds of the invention, formulated in the form of wettable powders (WP) or as emulsion concentrates (EC), were then applied to the surface of the covering soil as aqueous suspension or emulsion with addition of 0.5% additive at a water application rate equivalent to 600 l/ha (converted). After the treatment, the pots were placed in a greenhouse and kept under good growth conditions for the test plants. After about 3 weeks, the efficacy of the preparations was scored visually in comparison with untreated controls as percentages. For example, • 100% efficacy=plants have died, • 0% efficacy=like untreated control plants.
Tables C1a to C14b below show the effects of selected compounds of the general formula (I) according to table 1 on various harmful plants at an application rate corresponding to 320 g/ha or less, which were obtained by the experimental procedure mentioned above.

[8] = test system: Kochia scoparia (KCHSC); test: C. Herbicidal pre-emergence efficacy, KCHSC
Method in brief: as §2

Row | Compound | Pre-emergence efficacy against DIGSA ([1]; 80 g/ha) | Pre-emergence efficacy against DIGSA ([1]; 320 g/ha) | Pre-emergence efficacy against DIGSA ([1]; 1280 g/ha) | Pre-emergence efficacy against ABUTH ([2]; 80 g/ha) | Pre-emergence efficacy against ABUTH ([2]; 320 g/ha) | Pre-emergence efficacy against ABUTH ([2]; 1280 g/ha) | Post-emergence efficacy against KCHSC in % ([3]; 320 g/ha) | Post-emergence efficacy against KCHSC [3] | Pre-emergence efficacy against SETVI ([4]; 320 g/ha) | Post-emergence efficacy against AMARE in % ([5]; application rate 80 g/ha) | Post-emergence efficacy against AMARE in % ([5]; application rate 320 g/ha) | Post-emergence efficacy against KCHSC in % ([3]; 80 g/ha) | Post-emergence efficacy against SETVI in % ([6]; application rate 320 g/ha) | Pre-emergence efficacy against SETVI ([4]; 80 g/ha) | Pre-emergence efficacy against ALOMY ([7]; 80 g/ha) | Pre-emergence efficacy against ALOMY ([7]; 320 g/ha) | Post-emergence efficacy against SETVI in % ([6]; application rate 80 g/ha) | Pre-emergence efficacy against KCHSC in % ([8]; application rate 320 g/ha) | Pre-emergence efficacy against KCHSC in % ([8]; application rate 80 g/ha)
1 | Cc1cccc(Oc2ncc(Cl)cn2)c1OS(=O)(=O)CCCC(F)(F)F [Example I-28, 2-[(5-Chloropyrimidin-2-yl)oxy]-6-methylphenyl 4,4,4-trifluorobutane-1-sulfonate] | 90% | 100% | 100% | 100% | 100% | 100% | 90% | 100% |  |  |  |  |  |  |  |  |  |  | 
2 | CCCCCS(=O)(=O)Oc1ccccc1Oc1ncc(Cl)cn1 [Example I-24] |  | 100% | 100% |  |  |  | 100% | 100% | 80% | 90% | 100% | 90% | 100% |  |  |  |  |  | 
3 | CCS(=O)(=O)Oc1ccccc1Oc1ncc(Cl)cn1 [Example I-16] |  | 100% | 100% |  | 100% | 100% | 100% | 100% |  |  |  | 90% |  |  |  |  |  |  | 
4 | O=S(=O)(CCCCl)Oc1ccccc1Oc1ncc(F)cn1 [Example I-5] |  |  |  | 100% | 100% | 100% | 100% | 100% | 100% | 100% | 100% | 100% | 100% | 90% | 90% | 100% | 90% |  | 
5 | O=S(=O)(CCCCCl)Oc1ccccc1Oc1ncc(Cl)cn1 [Example I-15] |  |  |  | 100% | 100% | 100% | 100% | 100% | 100% | 100% | 100% | 100% | 100% | 80% |  | 90% | 80% |  | 
6 | CC(C)CS(=O)(=O)Oc1ccccc1Oc1ncc(Cl)cn1 [Example I-7, [2-(5-Chloropyrimidin-2-yl)oxyphenyl] 2-methylpropane-1-sulfonate] |  |  |  |  | 90% | 100% |  | 90% | 100% | 90% | 100% |  | 100% | 100% | 90% | 100% | 90% |  | 
7 | C=CCS(=O)(=O)Oc1ccccc1Oc1ncc(Cl)cn1 [Example I-36] |  | 90% | 100% |  | 100% | 100% |  | 90% |  |  |  |  |  |  |  |  |  | 100% | 
8 | CCCCS(=O)(=O)Oc1ccccc1Oc1ncc(Cl)cn1 [Example I-6] |  |  |  | 100% | 100% | 100% | 90% | 90% | 100% | 90% | 100% | 90% | 100% | 90% | 80% | 90% | 90% |  | 
9 | O=S(=O)(CCC1CC1)Oc1c(F)cccc1Oc1ncc(Cl)cn1 [Example I-55] | 100% | 100% | 100% |  |  | 100% | 90% | 90% | 90% | 90% | 100% |  | 90% | 80% |  |  | 80% | 100% | 80%
10 | O=S(=O)(CCC(F)=C(F)F)Oc1c(Cl)cccc1Oc1ncc(Cl)cn1 [Example I-73] |  | 90% | 100% |  |  | 90% | 100% | 100% | 100% | 80% | 100% | 90% |  |  |  |  |  | 100% | 
11 | O=S(=O)(CCCC(F)(F)F)Oc1c(Br)cccc1Oc1ncc(Cl)cn1 [Example I-30] |  | 100% | 100% |  | 90% | 100% | 100% | 100% |  |  |  | 100% |  |  |  |  |  |  | 
12 | O=S(=O)(CCC(F)(F)F)Oc1c(Br)cccc1Oc1ncc(Cl)cn1 [Example I-31] |  | 90% | 100% |  | 90% | 90% | 100% | 100% |  |  |  | 90% |  |  |  |  |  |  | 
13 | O=S(=O)(CCCCl)Oc1cccc(F)c1Oc1ncc(Cl)cn1 [Example I-13] |  |  | 100% |  | 90% | 100% | 90% | 100% |  |  | 80% |  |  |  |  |  |  |  | 
14 | Cc1cccc(Oc2ncc(Cl)cn2)c1OS(=O)(=O)CC1CC(F)(F)C1 [Example I-74] |  | 100% | 100% |  |  | 90% | 100% | 100% | 100% | 90% | 100% | 90% | 90% | 100% |  |  |  | 90% | 
15 | Cc1cccc(OS(=O)(=O)CCCCl)c1Oc1ncc(Cl)cn1 [Example I-12] |  |  |  | 90% | 90% | 100% |  | 90% |  | 90% | 90% |  | 90% |  |  |  |  |  | 
16 | O=S(=O)(CCC(F)(F)F)Oc1c(Br)cccc1Oc1ncc(F)cn1 [Example I-43] |  | 100% | 100% |  | 100% | 100% | 90% | 100% | 100% | 100% | 100% | 90% |  | 100% |  |  |  | 100% | 100%
17 | Cc1cccc(Oc2ncc(Cl)cn2)c1OS(=O)(=O)CCC(F)(F)F [Example I-29] | 90% | 100% | 100% | 90% | 100% | 100% | 100% | 100% |  |  |  |  |  |  |  |  |  |  | 
